Data on one substance can be found in patent US12685781B2, “Anti-HER3 antibody-drug conjugate” (DAIICHI SANKYO COMPANY, LIMITED, priority 2014, dated 2026).

The test system of experiment [1] is human melanoma cell line HT-144. Description: Antitumor test, human melanoma HT-144 in NMRI nude mice. Type of experiment: in vivo, mouse. The following applies: 25 mg/kg subcutaneously twice a week. As to the method:
Five- to 6-week-old female NMRI nude mice having a body weight of 22 to 26 g after acclimation were used. The mice were placed in individually ventilated cages (IVC, 4 mice at maximum per cage) which were kept at room temperature and a constant humidity. After randomization, the body weights of the mice were measured every other day, and the behaviors of the animals were recorded every day.
5×10^6 cells of a human melanoma cell line HT-144 (HTB-63) from ATCC were suspended in a solution prepared from 50 uL of PBS and Matrigel (PBS: PAA #H21-002, Matrigel: BD #354230) mixed at a ratio of 1:1, and subcutaneously transplanted to the right side area of the body of each NMRI nude mouse using a 29 G needle.
The measurement of the body weights and the tumor sizes and the measurement and calculation of the tumor volumes were carried out in the same manner as Test Example 6.
At Day 22 when the tumor size reached about 150 mm^3, 80 animals were randomly divided into 8 groups on the basis of their tumor sizes. At the same day, U1-59 or the antibody-drug conjugate (3), (10), or (13) or PBS for a control group were administered into the tail vein of each animal at the following doses.
Administration group: PBS was intravenously injected once a week at the same dose as the antibody-drug conjugate.
Administration group: U1-59 was subcutaneously injected twice a week at 25 mg/kg. […]

Experiment [2] has as its target HER3 (Homo sapiens, UniProt P21860). Kind of experiment: HER3 binding affinity by flow cytometry on HCC1569 cells. Also on record: host or cells: HCC1569 (human breast cancer cell line). The following applies: read-out: Kd (nM), equilibrium binding affinity. As to the method:
A human breast cancer cell line HCC1569 (CRL-2330) from ATCC was cultured in an RPMI1640 medium (purchased from Invitrogen Corp., containing 10% […] (manufactured by Invitrogen Corp.) and 2 mM L-glutamine (manufactured by Invitrogen Corp.)). The cells were dissociated from the culture plate using ACCUTASE® SOLUTION (Millipore Corp., SCR005) or EDTA (5 mM, phosphate buffered saline (PBS, 137 mM sodium chloride, 2.7 mM potassium chloride, 1.47 mM potassium dihydrogen phosphate, and 10.5 mM disodium hydrogen phosphate)), and the number of living cells was measured by trypan blue treatment. The same numbers of cells suspended in a fluorescence-activated cell sorting (FACS) buffer (PBS containing 3% FBS and 0.004% sodium azide) were inoculated to 96-well U-bottom plates, and the cells were precipitated by centrifugation and suspended in 100 uL of an ice-cooled antibody or antibody-drug conjugate dilution or FACS buffer. […]
U1-59, the antibody-drug conjugate (3), the antibody-drug conjugate (10), or the antibody-drug conjugate (13) was evaluated as the antibody or the antibody-drug conjugates. […]
Fluorescence signals from living cells were evaluated using Accuri C6 Flow cytometer (BD Biosciences/Accuri® Cytometers Inc., serial number 1424) and CFlow software (CFlow sampler Version 1.0.264.13). […]

A word on the Kd: it is the free concentration of one partner at which half of the binding sites on the other are occupied at equilibrium, for simple one-to-one binding. In the case of “U1-59: anti-HER3 human antibody; heavy and light chain variable regions SEQ ID NOs: 70 and 72; produced per WO 2007/077028”, the “day after transplantation at which group was euthanized because tumor sizes exceeded acceptable maximum level” value in experiment [1] was determined as 52 days. Also, in experiment [2], the Kd came to 1.6 nM.
